Data reported in patent publication US20240294522A1 (Lead Discovery Center GmbH, priority 2021, published 2024).

Assays:
[1] = target: T1, GRK5 (Homo sapiens, UniProt P34947); test: Lance Kinase Activity Assay, GRK5; details: biochemical Lance kinase activity assay; class symbols A-F; read-out: GRK5 LANCE Assay (IC-50)
T1 construct: purchased Thermo Scientific
Method in brief: (§1)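 IC50s from sigmoidal dose-response over 0.0025-10 μM compound, with phosphorylated ULight substrate detected by Eu anti-phospho antibody FRET after EDTA quench.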

[2] = target: T2, GRK2 (Homo sapiens, UniProt P25098); test: Lance Kinase Activity Assay, GRK2; details: biochemical Lance kinase activity assay; class symbols A-F; read-out: GRK2 LANCE Assay (IC-50)
T2 construct: purchased Thermo Scientific
T2 sequence (P25098 1-689): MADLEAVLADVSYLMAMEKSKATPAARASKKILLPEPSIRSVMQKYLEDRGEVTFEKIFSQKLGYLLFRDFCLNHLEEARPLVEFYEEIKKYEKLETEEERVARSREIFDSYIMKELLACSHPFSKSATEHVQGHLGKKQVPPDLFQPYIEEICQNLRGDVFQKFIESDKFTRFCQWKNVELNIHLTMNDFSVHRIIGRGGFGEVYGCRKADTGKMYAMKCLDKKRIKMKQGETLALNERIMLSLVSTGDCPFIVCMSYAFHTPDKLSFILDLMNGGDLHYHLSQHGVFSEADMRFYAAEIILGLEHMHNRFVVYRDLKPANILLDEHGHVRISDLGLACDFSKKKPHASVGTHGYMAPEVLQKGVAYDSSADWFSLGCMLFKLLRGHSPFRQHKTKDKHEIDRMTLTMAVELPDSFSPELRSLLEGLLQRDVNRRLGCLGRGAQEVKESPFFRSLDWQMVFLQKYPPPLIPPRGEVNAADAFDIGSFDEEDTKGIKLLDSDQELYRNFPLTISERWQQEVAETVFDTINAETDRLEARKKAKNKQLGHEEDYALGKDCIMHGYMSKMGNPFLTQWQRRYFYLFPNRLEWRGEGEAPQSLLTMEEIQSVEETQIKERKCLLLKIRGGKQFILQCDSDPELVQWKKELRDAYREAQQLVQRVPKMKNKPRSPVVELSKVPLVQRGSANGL
Method in brief: as §1

T1 sequence (P34947 whole entry): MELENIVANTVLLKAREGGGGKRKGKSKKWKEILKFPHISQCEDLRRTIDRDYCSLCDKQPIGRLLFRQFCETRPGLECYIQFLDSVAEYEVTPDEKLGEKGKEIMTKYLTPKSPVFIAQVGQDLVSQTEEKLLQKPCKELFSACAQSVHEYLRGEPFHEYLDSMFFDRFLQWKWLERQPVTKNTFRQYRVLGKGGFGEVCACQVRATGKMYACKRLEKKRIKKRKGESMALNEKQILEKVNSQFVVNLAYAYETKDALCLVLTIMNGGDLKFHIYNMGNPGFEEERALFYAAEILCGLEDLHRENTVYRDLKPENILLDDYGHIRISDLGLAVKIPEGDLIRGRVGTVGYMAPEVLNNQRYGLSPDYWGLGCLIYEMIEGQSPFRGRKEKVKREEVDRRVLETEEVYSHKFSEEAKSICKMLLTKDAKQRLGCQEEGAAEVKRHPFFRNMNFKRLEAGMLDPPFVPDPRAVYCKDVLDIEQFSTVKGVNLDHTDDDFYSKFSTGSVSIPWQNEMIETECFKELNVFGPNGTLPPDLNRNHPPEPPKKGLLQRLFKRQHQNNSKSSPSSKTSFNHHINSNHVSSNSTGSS

IC50 [1] [nM]	IC50 [2] [nM]	Structure (SMILES)
500 to 1000	500 to 1000	N#C/C(=C\c1c[nH]c2ncccc12)C(=O)NCc1cc(F)cc(F)c1 [Example 67, (E)-2-cyano-N-(3,5-difluorobenzyl)-3-(1H-pyrrolo[2,3-b]pyridin-3-yl)acrylamide]
1000 to 10000	> 10000	Cc1ccc(Br)cc1CNC(=O)/C(C#N)=C/c1c[nH]c2ncccc12 [Example 23, (E)-N-(5-bromo-2-methylbenzyl)-2-cyano-3-(1H-pyrrolo[2,3-b]pyridin-3-yl)acrylamide]
100 to 500	100 to 500	N#C/C(=C\c1c[nH]c2ncccc12)C(=O)NCc1ccc(F)c(F)c1 [Example 66, (E)-2-cyano-N-(3,4-difluorobenzyl)-3-(1H-pyrrolo[2,3-b]pyridin-3-yl)acrylamide]
1000 to 10000	> 10000	N#C/C(=C\c1c[nH]c2ncc(Cl)cc12)C(=O)NCc1ccccc1Cl [Example 74, (E)-3-(5-chloro-1H-pyrrolo[2,3-b]pyridin-3-yl)-N-(2-chlorobenzyl)-2-cyanoacrylamide]
1000 to 10000	1000 to 10000	N#C/C(=C\c1c[nH]c2ncc(Cl)cc12)C(=O)NCc1ccccc1 [Example 73, (E)-N-benzyl-3-(5-chloro-1H-pyrrolo[2,3-b]pyridin-3-yl)-2-cyanoacrylamide]
500 to 1000	100 to 500	CS(=O)(=O)Nc1cccc(CNC(=O)/C(C#N)=C/c2c[nH]c3ncccc23)c1 [Example 29, (E)-2-cyano-N-(3-(methylsulfonamido)benzyl)-3-(1H-pyrrolo[2,3-b]pyridin-3-yl)acrylamide]
1000 to 10000	1000 to 10000	N#C/C(=C\c1c[nH]c2ncccc12)C(=O)NCc1ccc(C#N)cc1 [Example 26, (E)-2-cyano-N-(4-cyanobenzyl)-3-(1H-pyrrolo[2,3-b]pyridin-3-yl)acrylamide]
1000 to 10000	> 10000	CN(C)c1cccc(CNC(=O)/C(C#N)=C/c2c[nH]c3ncccc23)c1 [Example 30, (E)-2-cyano-N-(3-(dimethylamino)benzyl)-3-(1H-pyrrolo[2,3-b]pyridin-3-yl)acrylamide]
100 to 500	500 to 1000	C[C@@H](NC(=O)/C(C#N)=C/c1c[nH]c2ncccc12)c1ccc(Cl)cc1 [Example 70, (R,E)-N-(1-(4-chlorophenyl)ethyl)-2-cyano-3-(1H-pyrrolo[2,3-b]pyridin-3-yl)acrylamide]
100 to 500	100 to 500	N#C/C(=C\c1c[nH]c2ncccc12)C(=O)N[C@H](CCO)c1ccccc1 [Example 40, (R,E)-2-cyano-N-(3-hydroxy-1-phenylpropyl)-3-(1H-pyrrolo[2,3-b]pyridin-3-yl)acrylamide]
100 to 500	100 to 500	CC[C@@H](NC(=O)/C(C#N)=C/c1c[nH]c2ncccc12)c1ccccc1 [Example 68, (R,E)-2-cyano-N-(1-phenylpropyl)-3-(1H-pyrrolo[2,3-b]pyridin-3-yl)acrylamide]

The remaining lines, values behind:

Structure (SMILES)	IC50 [1] [nM]	IC50 [2] [nM]
COc1ccc([C@@H](C)NC(=O)/C=C/c2c[nH]c3nccc(-c4cccc(C(N)=O)c4)c23)cc1OC [Example 233, (R,E)-3-(3-(3-((1-(3,4-dimethoxyphenyl)ethyl)amino)-3-oxoprop-1-en-1-yl)-1H-pyrrolo[2,3-b]pyridin-4-yl)benzamide]	50 to 100	1000 to 10000
COc1ccc([C@@H](C)NC(=O)/C=C/c2c[nH]c3ncc(-c4cccc(S(C)(=O)=O)c4)cc23)cc1OC [Example 114, (R,E)-N-(1-(3,4-dimethoxyphenyl)ethyl)-3-(5-(3-(methylsulfonyl)phenyl)-1H-pyrrolo[2,3-b]pyridin-3-yl)acrylamide]	≤ 50	1000 to 10000
COc1ccc([C@@H](C)NC(=O)/C(C#N)=C/c2c[nH]c3ncc(-c4cc(F)cc(F)c4)cc23)cc1OC [Example 131]	50 to 100	1000 to 10000
COc1ccc([C@@H](C)NC(=O)/C=C/c2c[nH]c3nccc(-c4ccc(CN(C)C)cc4)c23)cc1OC [Example 223, (R,E)-N-(1-(3,4-dimethoxyphenyl)ethyl)-3-(4-(4-((dimethylamino)methyl)phenyl)-1H-pyrrolo[2,3-b]pyridin-3-yl)acrylamide]	100 to 500	> 10000
COc1ccc([C@@H](C)NC(=O)/C(C#N)=C/c2c[nH]c3nccc(-c4ccc(C5CCN(C)CC5)cc4)c23)cc1OC [Example 170]	≤ 50	1000 to 10000
COc1ccc([C@@H](C)NC(=O)/C=C/c2c[nH]c3nccc(-c4cccc(N(C)C)c4)c23)cc1OC [Example 228, (R,E)-N-(1-(3,4-dimethoxyphenyl)ethyl)-3-(4-(3-(dimethylamino)phenyl)-1H-pyrrolo[2,3-b]pyridin-3-yl)acrylamide]	50 to 100	1000 to 10000
Cc1c(-c2cnn(C)c2)cnc2[nH]cc(/C=C(\C#N)C(=O)N[C@H](C)c3ccc(F)cc3)c12 [Example 98, (R,E)-2-cyano-N-(1-(4-fluorophenyl)ethyl)-3-(4-methyl-5-(1-methyl-1H-pyrazol-4-yl)-1H-pyrrolo[2,3-b]pyridin-3-yl)acrylamide]	500 to 1000	500 to 1000
COc1ccc([C@@H](C)NC(=O)/C(C#N)=C/c2c[nH]c3ncc(-c4cccc(OCCN(C)C)c4)cc23)cc1OC [Example 152]	≤ 50	1000 to 10000
COc1ccc([C@@H](C)NC(=O)/C(C#N)=C/c2c[nH]c3ncc(C)cc23)cc1OC [Example 87, (R,E)-2-cyano-N-(1-(3,4-dimethoxyphenyl)ethyl)-3-(5-methyl-1H-pyrrolo[2,3-b]pyridin-3-yl)acrylamide]	≤ 50	500 to 1000
COc1ccc([C@@H](C)NC(=O)/C(C#N)=C/c2c[nH]c3ncc(Br)cc23)cc1OC [Example 80, (R,E)-3-(5-bromo-1H-pyrrolo[2,3-b]pyridin-3-yl)-2-cyano-N-(1-(3,4-dimethoxyphenyl)ethyl)acrylamide]	50 to 100	> 10000
COc1ccc([C@@H](C)NC(=O)/C(C#N)=C/c2c[nH]c3ncc(-c4ccc5nc(C)cn5c4)cc23)cc1OC [Example 162]	≤ 50	1000 to 10000
COc1ccc([C@@H](C)NC(=O)/C=C/c2c[nH]c3ncc(-c4cnn(C)c4C)cc23)cc1OC [Example 202, (R,E)-N-(1-(3,4-dimethoxyphenyl)ethyl)-3-(5-(1,5-dimethyl-1H-pyrazol-4-yl)-1H-pyrrolo[2,3-b]pyridin-3-yl)acrylamide]	≤ 50	1000 to 10000
COc1ccc([C@@H](C)NC(=O)/C(C#N)=C/c2c[nH]c3ncc(-c4ccccc4OC)cc23)cc1OC [Example 124]	100 to 500	> 10000
N#C/C(=C\c1c[nH]c2ncc(Cl)cc12)C(=O)NCc1cc(F)cc(F)c1 [Example 75, (E)-3-(5-chloro-1H-pyrrolo[2,3-b]pyridin-3-yl)-2-cyano-N-(3,5-difluorobenzyl)acrylamide]	1000 to 10000	> 10000
COc1ccc(C(C)NC(=O)/C=C/c2c[nH]c3ncc(-c4cnn(C)c4)cc23)cc1C1CC1 (centres unmarked) [Example 253, (E)-N-(1-(3-cyclopropyl-4-methoxyphenyl)ethyl)-3-(5-(1-methyl-1H-pyrazol-4-yl)-1H-pyrrolo[2,3-b]pyridin-3-yl)acrylamide]	50 to 100	> 10000
COc1ccc([C@@H](C)NC(=O)/C(C#N)=C/c2c[nH]c3ncc(C(=O)N4CCOCC4)cc23)cc1OC [Example 82]	100 to 500	> 10000
COc1ccc([C@@H](C)NC(=O)/C(C#N)=C/c2c[nH]c3ncc(-c4cnn(C5CCN(C(=O)OC(C)(C)C)CC5)c4)cc23)cc1OC [Example 165]	50 to 100	1000 to 10000
COc1ccc([C@@H](C)NC(=O)/C(C#N)=C/c2c[nH]c3ncc(-c4ccc(N5CCN(C)CC5)cc4)cc23)cc1OC [Example 112, (R,E)-2-cyano-N-(1-(3,4-dimethoxyphenyl)ethyl)-3-(5-(4-(4-methylpiperazin-1-yl)phenyl)-1H-pyrrolo[2,3-b]pyridin-3-yl)acrylamide]	≤ 50	500 to 1000
COc1ccc([C@@H](C)NC(=O)/C=C/c2c[nH]c3ncc(-c4cncnc4)cc23)cc1OC [Example 207, (R,E)-N-(1-(3,4-dimethoxyphenyl)ethyl)-3-(5-(pyrimidin-5-yl)-1H-pyrrolo[2,3-b]pyridin-3-yl)acrylamide]	500 to 1000	> 10000
C[C@@H](NC(=O)/C(C#N)=C/c1c[nH]c2ncc(-c3cnn(C)c3)cc12)c1ccc(F)cc1 [Example 93, (R,E)-2-cyano-N-(1-(4-fluorophenyl)ethyl)-3-(5-(1-methyl-1H-pyrazol-4-yl)-1H-pyrrolo[2,3-b]pyridin-3-yl)acrylamide]	≤ 50	100 to 500
